Results as given in patent publication EP2459551B1, “DIHYDROBENZOINDAZOLES” (Merck Sharp & Dohme B.V., priority 2009, dated 2011).

Biological target: T1, human FSH receptor (Homo sapiens, UniProt P23945)
T1 sequence (P23945 18-695): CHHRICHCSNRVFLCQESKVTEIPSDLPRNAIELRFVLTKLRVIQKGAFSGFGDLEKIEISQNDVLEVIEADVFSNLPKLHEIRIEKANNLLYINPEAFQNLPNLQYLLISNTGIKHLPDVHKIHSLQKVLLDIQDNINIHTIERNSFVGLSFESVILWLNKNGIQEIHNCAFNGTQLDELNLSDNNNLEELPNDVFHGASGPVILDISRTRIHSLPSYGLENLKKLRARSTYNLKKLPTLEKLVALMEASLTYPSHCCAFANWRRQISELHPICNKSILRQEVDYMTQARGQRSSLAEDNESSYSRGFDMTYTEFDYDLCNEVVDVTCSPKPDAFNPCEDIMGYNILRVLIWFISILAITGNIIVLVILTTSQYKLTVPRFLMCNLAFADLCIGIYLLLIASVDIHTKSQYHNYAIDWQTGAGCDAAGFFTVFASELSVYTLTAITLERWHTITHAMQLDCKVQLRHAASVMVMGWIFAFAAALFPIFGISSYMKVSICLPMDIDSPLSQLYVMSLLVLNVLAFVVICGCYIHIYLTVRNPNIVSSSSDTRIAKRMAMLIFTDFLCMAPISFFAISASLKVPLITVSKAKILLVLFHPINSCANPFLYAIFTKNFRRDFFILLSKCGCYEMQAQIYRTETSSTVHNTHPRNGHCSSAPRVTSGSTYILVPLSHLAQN
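Note: CHO cells stably expressing human FSH receptor with CRE-driven firefly luciferase, luminescence read as counts per second after 4 h compound exposure in 1% DMSO.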

Description: Agonistic activity of compounds at the human FSH receptor expressed in CHO cells
Agonistic activity of the compounds at the human FSH receptor was determined in Chinese Hamster Ovary (CHO) cells stably transfected with the human FSH receptor and cotransfected with a cAMP responsive element (CRE)/promotor directing the expression of a firefly luciferase reporter gene. […] Cells (7,500 cells/well of a 384 well plate) were incubated in Dulbecco' minimal essential F12 modified medium (Invitrogen), supplemented with 1 µg/ml bovine insulin, 5 µg/ml human apotransferrin, 80 U/ml penicillin G and 80 µg/ml streptomycin with the test compounds (concentration between 0.0316 nM and 10.0 µM) in duplicate in a humidified atmosphere (95%) at 5-7% CO2 and 37°C. The final concentration of DMSO was 1%. After 4 hours of incubation, plates were allowed to adjust to room temperature for 1 hour. Then, Luclite (PerkinElmer) solution was added to the wells and cells were allowed to lyse for at least 1 hour at room temperature. Subsequently, luciferase activity was measured in a luminescence counter. The signal is expressed as counts per second (cps). The EC50 (concentration of the test compound that elicits half-maximal (50 %) luciferase stimulation compared to the compound's maximally attainable effect) and efficacy values (maximal effect of the test compound as percentage of the maximal effect of recombinant human FSH) of the compounds were determined using the software program MathIQ (version 2.0, ID Business Solutions Limited).

SMILES | EC50 [µM]
COc1cc2c(cc1NC(=O)CN1CCOCC1)-c1c(c(C(=O)N(C)C(C)(C)C)nn1-c1cccc(C)c1)CC2 [Example 12jb, N-tert-butyl-7-methoxy-N-methyl-8-(2-morpholinoacetamido)-1-m-tolyl-4,5-dihydro-1H-benzo[g]indazole-3-carboxamide] | 1 to 10
COc1cc2c(cc1NC(=O)CN(C)C)-c1c(c(C(=O)N(C)C(C)(C)C)nn1-c1cccc(C)c1)CC2 [Example 12jc, N-tert-butyl-8-(2-(dimethylamino)acetamido)-7-methoxy-N-methyl-1-m-tolyl-4,5-dihydro-1H-benzo[g]indazole-3-carboxamide] | 1 to 10
COc1cc2c(cc1NC(=O)CN1CCC1)-c1c(c(C(=O)N(C)C(C)(C)C)nn1-c1cccc(C)c1)CC2 [Example 12jd, 8-(2-(azetidin-1-yl)acetamido)-N-tert-butyl-7-methoxy-N-methyl-1-m-tolyl-4,5-dihydro-1H-benzo[g]indazole-3-carboxamide] | 1 to 10
COc1cc2c(cc1OC(C)C)-c1c(c(C(=O)N(C)C(C)(C)C)nn1-c1ccc(C)cc1)CC2 [Example 13ca, N-tert-butyl-8-isopropoxy-7-methoxy-N-methyl-1-p-tolyl-4,5-dihydro-1H-benzo[g]indazole-3-carboxamide] | 1 to 10
CCc1ccc(-n2nc(C(=O)N(C)C(C)(C)C)c3c2-c2cc(OC(C)C)c(OC)cc2CC3)cc1 [Example 13cb, N-tert-butyl-1-(4-ethylphenyl)-8-isopropoxy-7-methoxy-N-methyl-4,5-dihydro-1H-benzo[g]lindazole-3-carboxamide] | 1 to 10
COc1ccc(-n2nc(C(=O)N(C)C(C)(C)C)c3c2-c2cc(OC(C)C)c(OC)cc2CC3)cc1 [Example 13cc, N-tert-butyl-8-isopropoxy-7-methoxy-1-(4-methoxyphenyl)-N-methyl-4,5-dihydro-1H-benzo[g]indazole-3-carboxamide] | 1 to 10
COc1cc2c(cc1OC(C)C)-c1c(c(C(=O)N(C)C(C)(C)C)nn1-c1ccc(F)cc1)CC2 [Example 13cd, N-tert-butyl-1-(4-fluorophenyl)-8-isopropoxy-7-methoxy-N-methyl-4,5-dihydro-1H-benzo[g]indazole-3-carboxamide] | 0.1 to 1
COc1cc2c(cc1OC(C)C)-c1c(c(C(=O)N(C)C(C)(C)C)nn1-c1ccc(Cl)cc1)CC2 [Example 13ce, N-tert-butyl-1-(4-chlorophenyl)-8-isopropoxy-7-methoxy-N-methyl-4,5-dihydro-1H-benzo[g]indazole-3-carboxamide] | 0.1 to 1
COc1cc2c(cc1OC(C)C)-c1c(c(C(=O)N(C)C(C)(C)C)nn1-c1ccc(Br)cc1)CC2 [Example 13cf, N-tert-butyl-1-(4-bromophenyl)-8-isopropoxy-7-methoxy-N-methyl-4,5-dihydro-1H-benzo[g]indazole-3-carboxamide] | 1 to 10
COc1cc2c(cc1OC)-c1c(c(C(=O)N3CCCN(C(C)=O)CC3)nn1-c1ccsc1)CC2 [Example 14e, 1-(4-(7,8-dimethoxy-1-(thiophen-3-yl)-4,5-dihydro-1H-benzo[g]indazole-3-carbonyl)-1,4-diazepan-1-yl)ethanone] | 1 to 10
